In one test the test system is plasmid DNA pCR 2.1. Briefly: Electrophoretic mobility shift assay. The format is binding. The conditions noted are these: 100 ng plasmid, 0.1 nmol compound, 2 h at 37 °C, 1% agarose gel. A general note: A gel shift assay detects complexes by their altered migration in electrophoresis.
Another test deals with LS-180 (colon cancer). Description: MTT cytotoxicity assay, LS-180. The class given is cell-based. To be noted: Homo sapiens, LS180, 48 h, read-out: IC50 ± SD.
Test [1] concerns DNA-1 (5′-GTA AGA TGA TTC-3′ and 5′-GAA TCA TCT TAC-3′). The format is binding. To be noted: pH 7.2.
For test [2], the system named is ARPE-19 (retinal epithelium), nontumor. Description: MTT cytotoxicity assay, ARPE-19. The format is cell-based. The conditions noted are these: Homo sapiens, ARPE-19, 48 h, read-out: IC50 ± SD.
For a further test, the system named is HeLa (cervical cancer). Description: MTT cytotoxicity assay, HeLa. The class given is cell-based. The conditions noted are these: Homo sapiens, 48 h, read-out: IC50 ± SD. On the technique in general: Tetrazolium assays rely on reduction of a dye to a coloured formazan, in cell work by metabolically active cells.
The test system of the next test is A-549 (lung cancer). Description: MTT cytotoxicity assay, A-549. The conditions noted are these: Homo sapiens, A549, 48 h, read-out: IC50 ± SD. The class given is cell-based.

Where “and” joins values, the source holds several entries; their conditions need not be identical. Equal entries are not always repeated.

In the case of `COc1ccc2cc1Oc1ccc(cc1)C[C@H]1c3cc(c(OC)cc3CCN1C)Oc1c(OC)c(OC)cc3c1[C@H](C2)N(C)CC3` [tetrandrine, S,S-(+)-tetrandrine], the “Effect on electrophoretic mobility of plasmid DNA” value with plasmid DNA pCR 2.1 was “reduce the mobility of the plasmid”. The IC50 (as a rule, the concentration at which inhibition is half-maximal) in the test on LS-180 (colon cancer) was 6.43 µg/mL and 10.3 µM; in test [2], 8.45 µg/mL and 13.6 µM; in the test on HeLa (cervical cancer), 16.6 µg/mL and 26.7 µM; in the test with A-549 (lung cancer) it was 12.1 µg/mL and 19.4 µM. Further, the “Stern–Volmer constant (KSV)” value in test [1] is 7.34 × 10^3.

(Values after PMC9118212 (ACS Omega, 2022).)
